Results as given in patent US20200397795A1, “PROPHYLACTIC TREATMENT OF VENOUS THROMBOEMBOLISM” (JANSSEN PHARMACEUTICALS, INC., priority 2019, published 2020).
Several values for one entry are separate records, joined by “and”; a condition that tells them apart may be missing. Identical values can stand only once.

Legend:
[1] = tested on: bleeding events in patients hospitalized for acute medical illness; test: MAGELLAN (Study 1): safety, bleeding events and adverse events; type: in vivo, human; settings: for Fatal bleeding events, number: Day 1 to 10; for Treatment-emergent fatal bleeding events, number: Day 1 to 35; for Pulmonary embolism confirmed (deaths), number: entire study duration; for Investigator-reported deaths, incidence / VTE-related deaths, incidence: entire study duration (Day 1 to 90); for Bleeding events that required blood transfusions of 2 units / Bleeding events that resulted in a fall of Hb to ≥2 g/dL / Investigator-reported TEAEs leading to permanent discontinuation of study drug: in vivo
Text: The safety component of Criteria for Evaluation was the primary safety endpoint of incidence of the composite of treatment-emergent major bleeding events and non-major clinically relevant bleeding events observed during treatment and not later than 2 days after the last intake of double-blind study drug.
The primary safety outcome of the study was the treatment-emergent clinically relevant bleeding events, which were a composite of treatment-emergent adjudicated major bleeding events and clinically relevant non-major bleeding events.
The safety analysis was performed on 7998 randomized subjects who received at least one dose of study drug, rivaroxaban (3997 subjects) or enoxaparin (4001 subjects).
The primary safety outcome of the study was the assessment of clinically relevant bleeding events, which are a composite of treatment-emergent adjudicated major bleeding events and clinically relevant non-major bleeding events.

[2] = tested on: bleeding events in MAGELLAN subpopulation; test: Retrospective analysis of MAGELLAN subpopulation: safety (bleeding); type: in vivo
Text: Using key exclusion criteria from Study 2: MARINER to exclude subjects with a higher risk of bleeding, a subpopulation of Study 1: MAGELLAN was retrospectively analyzed to re-evaluate benefit-risk in this subpopulation, which included efficacy endpoints of symptomatic VTE and VTE-related death and safety endpoints of major bleeding events. The key exclusion criteria from Study 2: MARINER that were retrospectively applied to the Study 1: MAGELLAN population for this analysis included: active gastroduodenal ulcer within 3 months of randomization/currently symptomatic; any bleeding within 3 months prior to randomization or during index hospitalization; active cancer at randomization; medical history of severe bronchiectasis/pulmonary cavitation; or dual antiplatelet therapy at baseline. Subjects that met one or more of these criteria prior to or at randomization using standardized MedDRA queries or preferred terms of MedDRA version 13.1 based on data entered into the case report forms in the original MAGELLAN database were excluded from the subpopulation analysis.
The MAGELLAN study (Study 1) randomized 8,101 patients from 562 sites in 52 countries and the safety population of patients that received at least one dose of study medication was 7,998 patients. The five key risk factors for major bleeding events in MAGELLAN were identified using study data forms as described herein. With the retrospective use of these risk factors, 1,551 patients were excluded from MAGELLAN and the remaining 6,447 patients, approximately 80% of MAGELLAN, represented the subpopulation. Patients in both treatment groups had no differences in baseline characteristics, and had similar medical histories, with at least 99% of patients having complete immobility or decreased mobility and median total number of days in hospital of 10.

[3] = rivaroxaban-enoxaparin phase (Day 1 to 10)
[4] = rivaroxaban-enoxaparin/placebo phase (Day 1 to 35)
[5] = rivaroxaban-placebo phase (Day 10 to 35)
[6] = post-discharge phase, entire population and subpopulation

Molecule | Fatal bleeding events, number ([1]; entire population) | Treatment-emergent fatal bleeding events, number [1] | Major bleeding events, incidence ([1]; Day 1 to Day 10) | Investigator-reported SAEs, incidence ([1]; Day 1 to Day 35) | Investigator-reported TEAEs, incidence ([1]; Day 1 to Day 35) | Investigator-reported drug-related TEAEs, incidence ([1]; Day 1 to Day 35) | Major bleeding events, incidence ([1]; Day 1 to Day 35) | Clinically relevant non-major bleeding events, incidence ([1]; all phases of the study) | Major bleeding events, incidence ([1]; all phases of the study) | Minimal bleeding events, incidence ([1]; all phases of the study) | Pulmonary embolism confirmed (deaths), number [1] | Investigator-reported deaths, incidence [1] | VTE-related deaths, incidence [1] | Major bleeding events, incidence ([1]; follow-up phase) | Bleeding events that required blood transfusions of 2 units [1] | Bleeding events that resulted in a fall of Hb to ≥2 g/dL [1] | Investigator-reported TEAEs leading to permanent discontinuation of study drug [1] | Clinically relevant bleeding events, incidence [1, 3] | Clinically relevant bleeding events, incidence [1, 4] | Clinically relevant bleeding events, incidence [1, 5] | also measured
Enoxaparin | 1 cases | 1 subjects | 0.3% | 0.8% | 8.5% | 4.2% | 0.4% | 2.1% | 0.9% | 8.2% | 1 subjects | 6.5% | 1.2% | 0.6% | 0.2% | 0.2% | 1.5% | 1.2% | 1.7% | 0.5% | Pulmonary bleeding site (critical site bleeding), incidence ([1]; Day 1 to Day 35): 0%; Retroperitoneal bleeding site (critical site bleeding), incidence ([1]; Day 1 to Day 35): 0%; Fatal bleeds, number [2, 6]: 0; Fatal bleeds, number ([2]; subpopulation, Day 10): 1; Clinically relevant bleeding (major and NMCR), incidence ([2]; subpopulation, Day 35): 1.5%; Major bleeding, incidence ([2]; subpopulation, through Day 35): 0.47%
O=C(NC[C@H]1CN(c2ccc(N3CCOCC3=O)cc2)C(=O)O1)c1ccc(Cl)s1 [Rivaroxaban, 5-chloro-N-({(5S)-2-oxo-3-[4-(3-oxo-4-morpholinyl)phenyl]-1,3,oxazolidin-5-yl}methyl)-2-thiophenecarboxamide] | 5 cases | 7 subjects | 0.6% | 2.0% | 12.5% | 6.9% | 1.1% | 4.0% | 1.6% | 9.6% | 2 subjects | 7.0% | 1.0% | 0.6% | 0.6% | 0.8% | 3.1% | 2.8% | 4.1% | 1.4% | Intracranial bleeding site (critical site bleeding), incidence ([1]; Day 1 to Day 35): 0.1%; Major bleeding events, incidence ([1]; Day 10 to Day 35): 0.5%; Major bleeding, RR vs enoxaparin-placebo ([1]; entire MAGELLAN population, through Day 35): 2.87; Fatal bleeds, incidence ([1]; entire population, Day 10): 0.1%; Major bleeding, relative risk ([1]; entire population, Day 10): 2.18; Fatal bleeds, incidence ([1]; entire population, Day 35): 0.2%; Relative risk, clinically relevant bleeding [1, 3]: 2.272; Relative risk, clinically relevant bleeding [1, 4]: 2.46 and 2.455; Relative risk, clinically relevant bleeding [1, 5]: 2.958; Major bleeding, relative risk ([2]; human, in vivo, 10 day): 1.19; Clinically relevant bleeding (major and NMCR), incidence ([2]; human, in vivo, 35 day): 3.5%; Clinically relevant bleeding, RR vs enoxaparin ([2]; human, in vivo, 35 day): 2.35; Major bleeding, RR vs enoxaparin-placebo ([2]; human, in vivo, 35 day): 1.48; Major bleeding, incidence ([2]; human, in vivo, 35 day): 0.68%; Fatal bleeds, number [2, 6]: 2; Fatal bleeds, incidence ([2]; subpopulation, Day 10): less than 0.1%; Fatal bleeds, number ([2]; subpopulation, Day 10): 1; Fatal bleeds, incidence ([2]; subpopulation, Day 35): less than 0.1%
